SMILES strings stand for the structures. Like-named read-outs stand apart in the source and are kept apart here.

Experimental findings from patent US8273754B2, “Substituted 1H-pyrazolo[3,4-D]pyrimidine-6-amine compounds” (ArQule, Inc., priority 2008, dated 2012) are described below.

For one data set, the system named is cancer cells. Nature of the data set: MTS cell growth inhibition assay (72 hours). The data set is classed as cell-based. In a few lines:
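Growth inhibition read as formazan absorbance at 492 nm after 4 h MTS/PMS, following 72 h compound exposure at 37 °C in 1% FBS DMEM (cells pre-seeded 18 h). IC50 = 50% absorbance reduction; inhibition graded in bands.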

The next data set addresses T1, FGFR2 (N549H) (Homo sapiens, UniProt P21802, N549H).
T1 construct: purchased Millipore 14-742
In words: fluorescent ELISA assay for inhibitors of FGFR2 kinase. The data set is classed as biochemical. Particulars: Pyk2 peptide substrate, 60 minutes. Summed up:
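FGFR2 enzyme (0.5 μM) phosphorylates biotinylated Pyk2 peptide (37 μM) with 12.5 μM ATP added, in Tris-HCl buffer containing 10 mM MgCl2, 2 mM DTT and 75 μM ATP, for 60 min. Peptide captured on streptavidin 30 min at room temperature; phosphotyrosine detected by antibody, alkaline phosphatase secondary and Attophos fluorescence (ex 400/em 595 nm). Inhibition seen as signal decrease.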
Background: An ELISA detects its analyte on a solid surface through an enzyme-linked reagent.

Setting [1] is: Homo sapiens, DLD-1, 72 h, DLD-1 cells, read-out: DLD-1 MTS 72 hr at 10 μM.
The mark [2] stands for this setting: Homo sapiens, KATO III, 72 h, KATO III cells, read-out: KATO III MTS 72 hr at 10 μM.
Setting [3] is: Homo sapiens, MDA-MB-231, 72 h, MDA-MB-231 cells, read-out: MDA-MB-231 MTS 72 hr at 10 μM.
The mark [4] stands for this setting: Homo sapiens, NCI-H1299, 72 h, NCI-H1299 cells, read-out: NCI-H1299 MTS 72 hr at 10 μM.
The mark [5] stands for this setting: PaCa-2, 72 h, PACA-2 cells, read-out: PACA-2 MTS 72 hr at 10 μM.

T1 sequence (P21802 22-821 N549H): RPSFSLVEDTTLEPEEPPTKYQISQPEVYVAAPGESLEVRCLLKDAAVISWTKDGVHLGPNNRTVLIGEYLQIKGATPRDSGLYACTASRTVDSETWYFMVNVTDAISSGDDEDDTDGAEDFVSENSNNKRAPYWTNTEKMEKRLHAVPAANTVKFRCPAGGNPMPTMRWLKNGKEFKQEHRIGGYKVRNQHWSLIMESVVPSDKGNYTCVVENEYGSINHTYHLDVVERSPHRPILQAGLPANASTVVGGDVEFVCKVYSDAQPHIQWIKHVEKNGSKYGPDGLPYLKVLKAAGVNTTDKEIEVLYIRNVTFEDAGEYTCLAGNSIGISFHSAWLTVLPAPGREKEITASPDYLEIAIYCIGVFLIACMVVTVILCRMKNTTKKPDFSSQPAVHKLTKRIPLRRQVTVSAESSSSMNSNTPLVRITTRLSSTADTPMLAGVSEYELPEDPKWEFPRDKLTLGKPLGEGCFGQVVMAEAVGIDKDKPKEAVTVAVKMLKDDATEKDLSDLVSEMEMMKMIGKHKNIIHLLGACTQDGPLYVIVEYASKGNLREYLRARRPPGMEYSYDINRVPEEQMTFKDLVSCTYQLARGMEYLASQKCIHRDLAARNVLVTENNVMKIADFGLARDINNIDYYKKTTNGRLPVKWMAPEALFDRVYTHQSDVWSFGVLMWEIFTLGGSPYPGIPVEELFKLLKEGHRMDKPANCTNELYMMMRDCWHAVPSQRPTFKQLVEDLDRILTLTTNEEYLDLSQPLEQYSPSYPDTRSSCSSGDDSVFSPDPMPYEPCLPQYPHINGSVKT

In general, IC50 refers to the concentration that inhibits the measured activity by half. Broadly, the melting point is the temperature of the solid-liquid transition. On to `Nc1nc(NC2Cc3ccccc3N(CCc3ccccc3)C2)c2cn[nH]c2n1` (stereo not shown) [Compound 2, N^4-(1-(2-phenylethyl)-1,2,3,4-tetrahydroquinolin-3-yl)-1H-pyrazolo[3,4-d]pyrimidine-4,6-diamine], for which the melting point fell in the range of 117 to 122 °C. In addition, in the data set on cancer cells (setting [1]), the inhibition at 10 µM lay in the range of 50 to 79%. Also, in the data set with cancer cells (setting [2]), the inhibition at 10 µM is 50 to 79%. The inhibition at 10 µM in the data set on cancer cells (setting [3]) is below 50%. The inhibition at 10 µM with cancer cells (setting [4]) fell in the range of 50 to 79%. In the data set with cancer cells (setting [5]), the inhibition at 10 µM was below 50%. Further, the IC50 on FGFR2 (N549H) is 0.17 µM.

Regarding `Nc1nc(NC2Cc3ccccc3N(Cc3ccc(Cl)cc3Cl)C2)c2cn[nH]c2n1` (stereo not shown) [Compound 4, N^4-(1-(2,4-dichlorobenzyl)-1,2,3,4-tetrahydroquinolin-3-yl)-1H-pyrazolo[3,4-d]pyrimidine-4,6-diamine], the melting point is 170 to 174 °C. Moreover, in the data set with cancer cells (setting [1]), the inhibition at 10 µM is above 79%. Moreover, the inhibition at 10 µM in the data set on cancer cells (setting [2]) is above 79%. The inhibition at 10 µM in the data set with cancer cells (setting [3]) was above 79%. Moreover, in the data set on cancer cells (setting [4]), the inhibition at 10 µM was above 79%. Also, the inhibition at 10 µM with cancer cells (setting [5]) is above 79%. 3.06 µM corresponded to half-maximal inhibition against FGFR2 (N549H) (IC50).

Compound `Nc1nc(NC2Cc3ccccc3N(Cc3cccc(C(F)(F)F)c3)C2)c2cn[nH]c2n1` (stereo not shown) [Compound 5, N^4-(1-(3-(trifluoromethyl)benzyl)-1,2,3,4-tetrahydroquinolin-3-yl)-1H-pyrazolo[3,4-d]pyrimidine-4,6-diamine] yielded a melting point of 89 to 94 °C. In addition, the inhibition at 10 µM in the data set on cancer cells (setting [1]) was below 50%. Further, the inhibition at 10 µM in the data set with cancer cells (setting [2]) fell in the range of 50 to 79%. For the same compound, the inhibition at 10 µM in the data set with cancer cells (setting [3]) was below 50%. In the data set with cancer cells (setting [4]), the inhibition at 10 µM was below 50%. Further, the inhibition at 10 µM with cancer cells (setting [5]) was below 50%. Besides, on FGFR2 (N549H), the IC50 worked out at 10.7 µM.

Regarding `Nc1nc(N[C@H]2Cc3ccccc3N(Cc3ccc(F)cc3)C2)c2cn[nH]c2n1` [Compound 8, N^4-((3S)-1-(4-fluorobenzyl)-1,2,3,4-tetrahydroquinolin-3-yl)-1H-pyrazolo[3,4-d]pyrimidine-4,6-diamine], the melting point is 78 to 80 °C. Also, the inhibition at 10 µM in the data set with cancer cells (setting [1]) was above 79%. Further, the inhibition at 10 µM in the data set with cancer cells (setting [2]) was above 79%. The inhibition at 10 µM in the data set with cancer cells (setting [3]) is below 50%. In the data set with cancer cells (setting [4]), the inhibition at 10 µM is below 50%. The inhibition at 10 µM in the data set with cancer cells (setting [5]) was below 50%. In addition, the IC50 against FGFR2 (N549H) worked out at 11 µM.

Regarding `Nc1nc(N[C@@H]2Cc3ccccc3N(Cc3ccc(F)cc3)C2)c2cn[nH]c2n1` [Compound 9, (R)—N4-(1-(4-fluorobenzyl)-1,2,3,4-tetrahydroquinolin-3-yl)-1H-pyrazolo[3,4-d]pyrimidine-4,6-diamine], the melting point lay in the range of 140 to 143 °C. In addition, the inhibition at 10 µM in the data set on cancer cells (setting [1]) lay in the range of 50 to 79%. In addition, the inhibition at 10 µM in the data set with cancer cells (setting [2]) is above 79%. In addition, the inhibition at 10 µM in the data set on cancer cells (setting [3]) was below 50%. Besides, in the data set on cancer cells (setting [4]), the inhibition at 10 µM lay within 50 to 79%. Moreover, in the data set with cancer cells (setting [5]), the inhibition at 10 µM is 50 to 79%. The same compound came in with an IC50 on FGFR2 (N549H) of 0.22 µM.

For `Nc1nc(NC2Cc3ccccc3N(c3ccccc3)C2)c2cn[nH]c2n1` (stereo not shown) [Compound 11, N^4-(1-phenyl-1,2,3,4-tetrahydroquinolin-3-yl)-1H-pyrazolo[3,4-d]pyrimidine-4,6-diamine], the melting point lay in the range of 88 to 92 °C. Besides, the inhibition at 10 µM with cancer cells (setting [1]) is below 50%. In addition, in the data set on cancer cells (setting [2]), the inhibition at 10 µM is below 50%. For the same compound, in the data set with cancer cells (setting [3]), the inhibition at 10 µM was below 50%. Also, the inhibition at 10 µM in the data set on cancer cells (setting [4]) is below 50%. Besides, the inhibition at 10 µM with cancer cells (setting [5]) is below 50%. Further, the IC50 at FGFR2 (N549H) stood at 2.08 µM.

For the compound `Nc1nc(NC2Cc3ccccc3N(C(=O)c3ccccc3)C2)c2cn[nH]c2n1` (stereo not shown) [Compound 12, (3-(6-amino-1H-pyrazolo[3,4-d]pyrimidin-4-ylamino)-3,4-dihydroquinolin-1(2H)-yl)(phenyl)methanone], the melting point fell in the range of 155 to 164 °C. Further, the inhibition at 10 µM with cancer cells (setting [1]) was below 50%. Also, in the data set with cancer cells (setting [2]), the inhibition at 10 µM was below 50%. The inhibition at 10 µM with cancer cells (setting [3]) is below 50%. In the data set with cancer cells (setting [4]), the inhibition at 10 µM was below 50%. In addition, the inhibition at 10 µM in the data set with cancer cells (setting [5]) is below 50%. This compound displayed an IC50 on FGFR2 (N549H) of 21 µM.

Compound `Nc1nc(NC2Cc3ccccc3N(C(=O)c3ccc(Cl)cc3Cl)C2)c2cn[nH]c2n1` (stereo not shown) [Compound 13, (3-(6-amino-1H-pyrazolo[3,4-d]pyrimidin-4-ylamino)-3,4-dihydroquinolin-1(2H)-yl)(2,4-dichlorophenyl)methanone] returned a melting point of 165 to 173 °C. In addition, the inhibition at 10 µM with cancer cells (setting [1]) was below 50%. Also, the inhibition at 10 µM in the data set with cancer cells (setting [2]) is below 50%. In addition, in the data set with cancer cells (setting [3]), the inhibition at 10 µM is below 50%. Also, the inhibition at 10 µM with cancer cells (setting [4]) is below 50%. Besides, the inhibition at 10 µM in the data set with cancer cells (setting [5]) is below 50%. This compound came in with an IC50 against FGFR2 (N549H) of 17.9 µM.

`Nc1nc(NC2Cc3ccccc3N(S(=O)(=O)c3ccc(Cl)cc3Cl)C2)c2cn[nH]c2n1` (stereo not shown) [Compound 14, N^4-(1-(2,4-dichlorophenylsulfonyl)-1,2,3,4-tetrahydroquinolin-3-yl)-1H-pyrazolo[3,4-d]pyrimidine-4,6-diamine] registered a melting point of 153 to 163 °C. The inhibition at 10 µM in the data set with cancer cells (setting [1]) is below 50%. The inhibition at 10 µM in the data set with cancer cells (setting [2]) was 50 to 79%. Besides, the inhibition at 10 µM with cancer cells (setting [3]) was below 50%. In addition, the inhibition at 10 µM with cancer cells (setting [4]) is below 50%. The inhibition at 10 µM in the data set with cancer cells (setting [5]) is below 50%. The compound also showed an IC50 against FGFR2 (N549H) of 0.23 µM.

Compound `Nc1nc(NC2Cc3ccccc3N(Cc3cccc(-c4ccccc4)c3)C2)c2cn[nH]c2n1` (stereo not shown) [Compound 224, N4-(1-(biphenyl-3-ylmethyl)-1,2,3,4-tetrahydroquinolin-3-yl)-1H-pyrazolo[3,4-d]pyrimidine-4,6-diamine] registered a melting point of 128 to 132 °C. Moreover, the inhibition at 10 µM with cancer cells (setting [1]) is above 79%. The inhibition at 10 µM in the data set with cancer cells (setting [2]) is above 79%. For the same compound, the inhibition at 10 µM with cancer cells (setting [3]) is below 50%. Also, in the data set on cancer cells (setting [4]), the inhibition at 10 µM was above 79%. Further, the inhibition at 10 µM with cancer cells (setting [5]) was above 79%. The compound further had an IC50 on FGFR2 (N549H) of 19.3 µM.
